Data from ChEMBL document CHEMBL1143656, “A novel series of potent gamma-secretase inhibitors based on a benzobicyclo[4.2.1]nonane core” (Bioorg Med Chem Lett, 2005).

These compounds were tested against Gamma-secretase (assay: Inhibitory concentration against Gamma-secretase in whole cell inhibition assay using SH-SY5Y cells). Details: not given.
Assay type: functional, cell-based, Homo sapiens

Q: With `O=C(CNCc1ccccc1)Nc1ccc2c(c1)CC1CCC(C2)C1NS(=O)(=O)c1ccc(Cl)s1` (stereo not given) as the compound, how does the IC50 read?
A: 3490 nM

Q: How did the IC50 turn out when `CCc1ccc(S(=O)(=O)NC2C3CCC2Cc2ccccc2C3)cc1` (stereo not given) was run?
A: > 1000 nM

Q: Which IC50 does the source give for `Cc1ccc(S(=O)(=O)NC2C3CCC2Cc2ccccc2C3)cc1` (stereo not given) here?
A: 651 nM

Q: Which IC50 does the source give for `O=S(=O)(NC1C2CCC1Cc1cc(/C=C/CN3CCOCC3)ccc1C2)c1ccc(Cl)s1` (stereo in doubt; form 1) [listing 1 of 2 here] here?
A: 1 nM

Q: How did the IC50 turn out when `O=S(=O)(NC1C2CCC1Cc1cc(OCCN3CCC(O)C3)ccc1C2)c1ccc(Cl)s1` (stereo not given) was run?
A: 209 nM

Q: Which IC50 does the source give for `O=S(=O)(NC1C2CCC1Cc1ccccc1C2)c1ccc(Cl)cc1` (stereo not given) here?
A: 467 nM

Q: With `O=S(=O)(NC1C2CCC1Cc1cc(OCCN3CCC(O)CC3)ccc1C2)c1ccc(Cl)s1` (stereo not given) as the compound, how does the IC50 read?
A: 623 nM

Q: Which IC50 does the source give for `CC1CCCCN1CCOc1ccc2c(c1)CC1CCC(C2)C1NS(=O)(=O)c1ccc(Cl)s1` (stereo not given) here?
A: 227 nM

Q: Which IC50 does the source give for `CC(C)CCCC(=O)Nc1ccc2c(c1)CC1CCC(C2)C1NS(=O)(=O)c1ccccc1` (stereo not given) here?
A: 535 nM

Q: Which IC50 does the source give for `O=S(=O)(NC1C2CCC1Cc1ccccc1C2)c1ccccc1` (stereo not given) here?
A: 190 nM

Q: Which IC50 does the source give for `O=S(=O)(NC1C2CCC1Cc1cc(OCCN3CCCCC3)ccc1C2)c1ccc(Cl)s1` (stereo not given) here?
A: 73 nM

Q: With `O=S(=O)(NC1C2CCC1Cc1cc(/C=C/Cn3ccnc3)ccc1C2)c1ccc(Cl)s1` (stereo not given) as the compound, how does the IC50 read?
A: 15 nM

Q: With `O=S(=O)(NC1C2CCC1Cc1cc(F)ccc1C2)c1ccccc1` (stereo not given) as the compound, how does the IC50 read?
A: 70 nM

Q: How did the IC50 turn out when `O=C(Nc1ccc2c(c1)CC1CCC(C2)C1NS(=O)(=O)c1ccccc1)c1cccnc1` (stereo not given) was run?
A: > 1000 nM

Q: How did the IC50 turn out when `CN(CC(=O)Nc1ccc2c(c1)CC1CCC(C2)C1NS(=O)(=O)c1ccc(Cl)s1)Cc1ccccc1` (stereo not given) was run?
A: 226 nM

Q: With `O=S(=O)(NC1C2CCC1Cc1ccccc1C2)c1cccc(F)c1` (stereo not given) as the compound, how does the IC50 read?
A: 324 nM

Q: Which IC50 does the source give for `O=S(=O)(NC1C2CCC1Cc1ccccc1C2)c1ccccc1F` (stereo not given) here?
A: 239 nM

Q: With `CN1CCN(CC(=O)Nc2ccc3c(c2)CC2CCC(C3)C2NS(=O)(=O)c2ccc(Cl)s2)CC1` (stereo not given) as the compound, how does the IC50 read?
A: 69 nM

Q: With `CN1CCN(C/C=C/c2ccc3c(c2)CC2CCC(C3)C2NS(=O)(=O)c2ccc(Cl)s2)CC1` (stereo not given) as the compound, how does the IC50 read?
A: 39 nM

Q: Which IC50 does the source give for `O=S(=O)(NC1C2CCC1Cc1cc(/C=C/CN3CCOCC3)ccc1C2)c1ccc(Cl)s1` (stereo in doubt; form 2) here?
A: 315 nM

Q: `CCCCCS(=O)(=O)NC1C2CCC1Cc1ccccc1C2` (stereo not given) was tested. Which IC50 did it give?
A: > 1000 nM

Q: With `O=C(CCc1ccccc1)Nc1ccc2c(c1)CC1CCC(C2)C1NS(=O)(=O)c1ccccc1` (stereo not given) as the compound, how does the IC50 read?
A: > 1000 nM

Q: `O=C(Nc1ccc2c(c1)CC1CCC(C2)C1NS(=O)(=O)c1ccccc1)OCc1cccc(Cl)c1` (stereo not given) was tested. Which IC50 did it give?
A: 412 nM

Q: `O=S(=O)(NC1C2CCC1Cc1cc(/C=C/CN3CCCCC3)ccc1C2)c1ccc(Cl)s1` (stereo not given) was tested. Which IC50 did it give?
A: 152 nM

Q: For `O=C(CN1CCCCC1)Nc1ccc2c(c1)CC1CCC(C2)C1NS(=O)(=O)c1ccc(Cl)s1` (stereo not given), which IC50 is on record?
A: 6 nM

Q: With `CCCCCC(=O)Nc1ccc2c(c1)CC1CCC(C2)C1NS(=O)(=O)c1ccccc1` (stereo not given) as the compound, how does the IC50 read?
A: > 1000 nM

Q: How did the IC50 turn out when `O=S(=O)(NC1C2CCC1Cc1ccccc1C2)c1ccc(F)cc1` (stereo not given) was run?
A: 129 nM

Q: With `Cc1cccc(S(=O)(=O)NC2C3CCC2Cc2ccccc2C3)c1` (stereo not given) as the compound, how does the IC50 read?
A: > 1000 nM

Q: For `CC(C)(C)c1ccc(S(=O)(=O)NC2C3CCC2Cc2ccccc2C3)cc1` (stereo not given), which IC50 is on record?
A: > 1000 nM

Q: `O=[N+]([O-])c1ccc(S(=O)(=O)NC2C3CCC2Cc2ccccc2C3)cc1` (stereo not given) was tested. Which IC50 did it give?
A: > 1000 nM

Q: With `O=S(=O)(NC1C2CCC1Cc1cc(F)ccc1C2)c1ccc(Cl)s1` (stereo not given) as the compound, how does the IC50 read?
A: 29 nM

Q: Which IC50 does the source give for `CCCCS(=O)(=O)NC1C2CCC1Cc1ccccc1C2` (stereo not given) here?
A: 610 nM

Q: For `O=C(Nc1ccc2c(c1)CC1CCC(C2)C1NS(=O)(=O)c1ccccc1)OCc1ccc(Cl)cc1` (stereo not given), which IC50 is on record?
A: 16 nM

Q: `O=S(=O)(NC1C2CCC1Cc1ccccc1C2)c1cc(Cl)c(Cl)s1` (stereo not given) was tested. Which IC50 did it give?
A: > 1000 nM

Q: How did the IC50 turn out when `O=S(=O)(NC1C2CCC1Cc1cc(Cl)ccc1C2)c1ccc(Cl)s1` (stereo not given) was run?
A: 146 nM

Q: Which IC50 does the source give for `O=C(CN1CCCC1)Nc1ccc2c(c1)CC1CCC(C2)C1NS(=O)(=O)c1ccc(Cl)s1` (stereo not given) here?
A: 7 nM

Q: For `O=C(Nc1ccc2c(c1)CC1CCC(C2)C1NS(=O)(=O)c1ccccc1)c1ccccn1` (stereo not given), which IC50 is on record?
A: 75 nM

Q: Which IC50 does the source give for `COc1ccc2c(c1)CC1CCC(C2)C1NS(=O)(=O)c1ccc(Cl)s1` (stereo not given) here?
A: 490 nM

Q: `O=S(=O)(NC1C2CCC1Cc1ccccc1C2)c1cccs1` (stereo not given) was tested. Which IC50 did it give?
A: 50 nM

Q: With `O=C(CN1CCOCC1)Nc1ccc2c(c1)CC1CCC(C2)C1NS(=O)(=O)c1ccc(Cl)s1` (stereo not given) as the compound, how does the IC50 read?
A: 7 nM

Q: For `COCC(=O)Nc1ccc2c(c1)CC1CCC(C2)C1NS(=O)(=O)c1ccccc1` (stereo not given), which IC50 is on record?
A: > 1000 nM

Q: Which IC50 does the source give for `O=S(=O)(NC1C2CCC1Cc1ccccc1C2)c1ccc(C(F)(F)F)cc1` (stereo not given) here?
A: > 1000 nM

Q: How did the IC50 turn out when `O=S(=O)(NC1C2CCC1Cc1cc(O)ccc1C2)c1ccc(Cl)s1` (stereo not given) was run?
A: 269 nM

Q: For `O=S(=O)(NC1C2CCC1Cc1cc(OCCN3CCOCC3)ccc1C2)c1ccc(Cl)s1` (stereo not given), which IC50 is on record?
A: 5 nM

Q: For `CCS(=O)(=O)NC1C2CCC1Cc1ccccc1C2` (stereo not given), which IC50 is on record?
A: > 1000 nM

Q: `O=C(Nc1ccc2c(c1)CC1CCC(C2)C1NS(=O)(=O)c1ccccc1)OCc1ccccc1` (stereo not given) was tested. Which IC50 did it give?
A: 74 nM

Q: `CC(=O)Nc1ccc2c(c1)CC1CCC(C2)C1NS(=O)(=O)c1ccccc1` (stereo not given) was tested. Which IC50 did it give?
A: > 1000 nM

Q: With `O=S(=O)(NC1C2CCC1Cc1ccccc1C2)c1ccc(Cl)s1` (stereo not given) as the compound, how does the IC50 read?
A: 62 nM

Q: How did the IC50 turn out when `CC1CCCN1CCOc1ccc2c(c1)CC1CCC(C2)C1NS(=O)(=O)c1ccc(Cl)s1` (stereo not given) was run?
A: 335 nM

Q: With `Nc1ccc2c(c1)CC1CCC(C2)C1NS(=O)(=O)c1ccccc1` (stereo not given) as the compound, how does the IC50 read?
A: 6000 nM

Q: How did the IC50 turn out when `O=S(=O)(NC1C2CCC1Cc1cc(/C=C/CN3CCOCC3)ccc1C2)c1ccc(Cl)s1` (racemic) was run?
A: 5 nM

Q: How did the IC50 turn out when `O=C(Nc1ccc2c(c1)CC1CCC(C2)C1NS(=O)(=O)c1ccccc1)OCc1ccccc1Cl` (stereo not given) was run?
A: 153 nM

Q: For `O=S(=O)(NC1C2CCC1Cc1c(F)cccc1C2)c1ccc(Cl)s1` (stereo not given), which IC50 is on record?
A: 34 nM

Q: How did the IC50 turn out when `O=S(=O)(NC1C2CCC1Cc1cc(/C=C/CN3CCN(c4ccccc4)CC3)ccc1C2)c1ccc(Cl)s1` (stereo not given) was run?
A: 21 nM

Q: `O=C(Nc1ccc2c(c1)CC1CCC(C2)C1NS(=O)(=O)c1ccccc1)c1ccccc1` (stereo not given) was tested. Which IC50 did it give?
A: > 1000 nM

Q: `O=C(Nc1ccc2c(c1)CC1CCC(C2)C1NS(=O)(=O)c1ccc(Cl)s1)OCc1ccccc1` (stereo not given) was tested. Which IC50 did it give?
A: 23 nM

Q: With `O=C(Nc1ccc2c(c1)CC1CCC(C2)C1NS(=O)(=O)c1ccc(Cl)s1)c1ccccn1` (stereo not given) as the compound, how does the IC50 read?
A: 12 nM

Q: How did the IC50 turn out when `O=C(CN1CCN(c2ccccc2)CC1)Nc1ccc2c(c1)CC1CCC(C2)C1NS(=O)(=O)c1ccc(Cl)s1` (stereo not given) was run?
A: 5 nM

Q: With `CCCS(=O)(=O)NC1C2CCC1Cc1ccccc1C2` (stereo not given) as the compound, how does the IC50 read?
A: 721 nM

Q: `O=C(Nc1ccc2c(c1)CC1CCC(C2)C1NS(=O)(=O)c1ccccc1)c1ccncc1` (stereo not given) was tested. Which IC50 did it give?
A: > 1000 nM

Q: Which IC50 does the source give for `O=S(=O)(NC1C2CCC1Cc1c(Cl)cccc1C2)c1ccc(Cl)s1` (stereo not given) here?
A: 175 nM

Q: `CCN(CC)CC(=O)Nc1ccc2c(c1)CC1CCC(C2)C1NS(=O)(=O)c1ccc(Cl)s1` (stereo not given) was tested. Which IC50 did it give?
A: 41 nM

What follows are compounds tested on Mus musculus (assay: Concentration of […] beta40 in brain of transgenic APP-YAC mice 4 hr after 100 mg/kg peroral dose). Details: route oral.
Assay type: functional

Q: With `O=S(=O)(NC1C2CCC1Cc1cc(/C=C/CN3CCOCC3)ccc1C2)c1ccc(Cl)s1` (stereo in doubt; form 1) [listing 1 of 2 here] as the compound, how does the Brain concentration read?
A: 16.7 µM

Each compound was assayed on Mus musculus (assay: Concentration of […] beta40 in plasma of transgenic APP-YAC mice 4 hr after 100 mg/kg peroral dose). Details: not given.
Assay type: functional, organism-based
Set-up: dose 100 mg/kg

Q: How did the Plasma concentration turn out when `O=S(=O)(NC1C2CCC1Cc1cc(/C=C/CN3CCOCC3)ccc1C2)c1ccc(Cl)s1` (stereo in doubt; form 1) [listing 2 of 2 here] was run?
A: > 7.91 µM

What follows are compounds tested on Mus musculus (assay: Reduction of […] beta-40 in transgenic APP-YAC mice 4 hr after 100 mg/kg peroral dose). Details: route oral.
Assay type: functional

Q: With `O=S(=O)(NC1C2CCC1Cc1cc(/C=C/CN3CCOCC3)ccc1C2)c1ccc(Cl)s1` (stereo in doubt; form 1) [listing 1 of 2 here] as the compound, how does the Reduction read?
A: 50%
